Assay results published in ChEMBL document CHEMBL1136596, “Four novel bis-(naphtho-gamma-pyrones) isolated from Fusarium species as inhibitors of HIV-1 integrase” (Bioorg Med Chem Lett, 2003).

The molecules below were run against T1, Human immunodeficiency virus type 1 integrase (Human immunodeficiency virus 1, UniProt Q7ZJM1) (assay: Inhibition of HIV-1 integrase in coupled transfer assay). Settings: not given.
T1 sequence (Q7ZJM1 whole entry): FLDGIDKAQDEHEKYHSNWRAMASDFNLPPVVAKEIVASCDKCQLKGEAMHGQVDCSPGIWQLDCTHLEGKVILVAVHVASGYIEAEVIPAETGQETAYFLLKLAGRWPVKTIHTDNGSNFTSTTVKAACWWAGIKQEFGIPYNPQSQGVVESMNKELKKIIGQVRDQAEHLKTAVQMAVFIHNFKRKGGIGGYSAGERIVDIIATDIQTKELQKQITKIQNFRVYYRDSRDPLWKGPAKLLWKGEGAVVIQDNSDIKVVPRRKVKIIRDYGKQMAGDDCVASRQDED

Point of comparison: `COc1cc(O)c2c(O)c3c(cc2c1-c1c(OC)cc(OC)c2c(OC)c4c(cc12)OC(C)C(C)C4=O)OC(C)C(C)C3=O` (stereo in doubt; 9e), IC50 40 µM. Against it:
- COc1cc(OC)c2c(OC)c3c(cc2c1-c1c(OC)cc(OC)c2c(OC)c4c(cc12)OC(C)C(C)C4=O)OC(C)C(C)C3=O (configuration not stated) — 1.5-fold higher, 60 µM
- C[C@@H]1Oc2cc3c(-c4c(O)cc(O)c5c(O)c6c(cc45)O[C@H](C)[C@@H](C)C(=O)O6)c(O)cc(O)c3c(O)c2C(=O)[C@@H]1C — 13-fold lower, 3 µM
- COc1cc(O)c2c(OC)c3c(cc2c1-c1c(OC)cc(OC)c2c(OC)c4c(cc12)OC(C)C(C)C4=O)OC(C)C(C)C3=O (configuration not stated) — the same, 40 µM
- COc1cc(O)c2c(OC)c3c(cc2c1-c1c(O)cc(OC)c2c(OC)c4c(cc12)OC(C)C(C)C4=O)OC(C)C(C)C3=O (configuration not stated) — 5-fold lower, 8 µM
- CC(=O)Oc1cc(OC(C)=O)c2c(OC(C)=O)c3c(cc2c1-c1c(OC(C)=O)cc(OC(C)=O)c2c(OC(C)=O)c4c(cc12)OC(C)C(C)C4=O)OC(C)C(C)C3=O (configuration not stated) — within 1.5-fold, 50 µM
- Cc1oc2cc3c(-c4c(O)cc(O)c5c(O)c6c(cc45)O[C@H](C)[C@H](C)C6=O)c(O)cc(O)c3c(O)c2c(=O)c1C — 40-fold lower, 1 µM
- COc1cc(O)c2c(O)c3c(cc2c1-c1c(OC)cc(OC)c2c(OC)c4c(cc12)OC(C)C(C)C4=O)OC(C)C(C)C3=O (stereo in doubt; 9d) — 2-fold higher, 80 µM
- CC1Oc2cc3c(-c4c(O)cc(O)c5c(O)c6c(cc45)OC(C)C(C)C6=O)c(O)cc(O)c3c(O)c2C(=O)C1C (stereo in doubt; form 1) — 20-fold lower, 2 µM
- CC1Oc2cc3c(-c4c(O)cc(O)c5c(O)c6c(cc45)OC(C)C(C)C6=O)c(O)cc(O)c3c(O)c2C(=O)C1C (stereo in doubt; form 2) — 20-fold lower, 2 µM

The molecules below were run against T1, Human immunodeficiency virus type 1 integrase (assay: Inhibition of HIV-1 integrase in strand transfer assay). Settings: not given.

Point of comparison: `CC1Oc2cc3c(-c4c(O)cc(O)c5c(O)c6c(cc45)OC(C)C(C)C6=O)c(O)cc(O)c3c(O)c2C(=O)C1C` (stereo in doubt; form 1), IC50 12 µM. Against it:
- COc1cc(OC)c2c(OC)c3c(cc2c1-c1c(OC)cc(OC)c2c(OC)c4c(cc12)OC(C)C(C)C4=O)OC(C)C(C)C3=O (configuration not stated) — higher, > 100 µM
- C[C@@H]1Oc2cc3c(-c4c(O)cc(O)c5c(O)c6c(cc45)O[C@H](C)[C@@H](C)C(=O)O6)c(O)cc(O)c3c(O)c2C(=O)[C@@H]1C — within 1.5-fold, 9 µM
- COc1cc(O)c2c(OC)c3c(cc2c1-c1c(OC)cc(OC)c2c(OC)c4c(cc12)OC(C)C(C)C4=O)OC(C)C(C)C3=O (configuration not stated) — higher, > 100 µM
- COc1cc(O)c2c(OC)c3c(cc2c1-c1c(O)cc(OC)c2c(OC)c4c(cc12)OC(C)C(C)C4=O)OC(C)C(C)C3=O (configuration not stated) — higher, > 100 µM
- CC(=O)Oc1cc(OC(C)=O)c2c(OC(C)=O)c3c(cc2c1-c1c(OC(C)=O)cc(OC(C)=O)c2c(OC(C)=O)c4c(cc12)OC(C)C(C)C4=O)OC(C)C(C)C3=O (configuration not stated) — higher, > 100 µM
- Cc1oc2cc3c(-c4c(O)cc(O)c5c(O)c6c(cc45)O[C@H](C)[C@H](C)C6=O)c(O)cc(O)c3c(O)c2c(=O)c1C — 3-fold lower, 4 µM
- COc1cc(O)c2c(O)c3c(cc2c1-c1c(OC)cc(OC)c2c(OC)c4c(cc12)OC(C)C(C)C4=O)OC(C)C(C)C3=O (stereo in doubt; 9d) — higher, > 100 µM
- COc1cc(O)c2c(O)c3c(cc2c1-c1c(OC)cc(OC)c2c(OC)c4c(cc12)OC(C)C(C)C4=O)OC(C)C(C)C3=O (stereo in doubt; 9e) — higher, > 100 µM
- CC1Oc2cc3c(-c4c(O)cc(O)c5c(O)c6c(cc45)OC(C)C(C)C6=O)c(O)cc(O)c3c(O)c2C(=O)C1C (stereo in doubt; form 2) — the same, 12 µM

Each molecule was assayed on Human immunodeficiency virus 1 (assay: Viral protection was determined in a 24 hr HIV-1 viral infectivity assay). Settings: not given.
Type: functional, organism-based

`CC1Oc2cc3c(-c4c(O)cc(O)c5c(O)c6c(cc45)OC(C)C(C)C6=O)c(O)cc(O)c3c(O)c2C(=O)C1C` (stereo in doubt; form 2) was tested, and the IC50 was 2 µM.

Same assay, conditions: Human immunodeficiency virus 1, 24 h

With `CC1Oc2cc3c(-c4c(O)cc(O)c5c(O)c6c(cc45)OC(C)C(C)C6=O)c(O)cc(O)c3c(O)c2C(=O)C1C` (stereo in doubt; form 1) the IC50 was 3 µM.
